Source: patent US20100119587A1, “SOLID LIPIDIC […] AS PHARMACEUTICALLY ACCEPTABLE FILLERS OR […] FOR INHALATION” (UNIVERSITE LIBRE DE BRUXELLES, priority 2004, published 2010)
≈ marks a conversion by molar mass, not a printed value.

Columns and labels:
Assay type in all cases: physicochemical
[1] = In vitro deposition test, FPD/FPF by Multi-stage Liquid Impinger (tobramycin formulations); conditions: Table 11, loaded dose = 15 mg, Cyclohaler 100 l/min 2.4 s, n = 3
Method: The Fine Particle Dose has been determined by the method described in the European Pharmacopoeia 4 for the aerodynamic assessment of fine particle, using Apparatus C—Multi-stage Liquid Impinger (MsLI) […] The flow rate was adjusted to a pressure drop of 4 kPa, as typical for inspiration by a patient, resulting in a flow rate of 100 l/min during 2.4 seconds. At least 3 FPD determinations were performed on each formulation and analysis were carried out by a suitable and validated analytical HPLC method. In order to increase the UV absorptivity of the molecule, a derivatization method was applied. The suitable and validated quantification method is described in the USP 25. The HPLC system consisted of a High Performance Liquid Chromatography system (HP 1100 series, Agilent technologies, Belgium), equipped with a quartenary pump, an autosampler and a variable wavelength UV detector set at 360 nm. The separation system was a 39 cm×3.9 mm stainless steel (5 μm particle size) reversed-phase C18 column (Alltima, Alltech, Belgium). Samples of 20 μl volume were injected. The mobile phase was prepared by dissolving 2 g of Tris(hydroxymethyl)aminomethane in 800 ml of water. […] The mass of test substance deposited on each stage was determined from the HPLC analysis of the recovered solutions. […] It is considered to be directly proportional to the amount of drug able to reach the pulmonary tract in vivo, and consequently, the higher the value FPD, the higher the estimated lung deposition.

[2] = Particle size distribution by laser diffraction (Mastersizer 2000, dry sampling)
Method: For each SLP composition, the particle size distribution is measured by laser diffractometry, using a dry sampling system with a suitable SOP (Standard Operating Procedure), (Scirocco®, Mastersizer 2000, Malvern, UK).
The size distributions are expressed in terms of the mass median diameter d(0.5), i.e. the size in microns which 50% of the sample is smaller and 50% is larger, and in terms of the volume (mass) mean diameter D[4,3].

[3] = Solubility in isopropanol; conditions: organic solvent or mixture

FPD [1]: 7.2 ± 0.6 mg
FPF [1]: 48.1 ± 0.4%
FPF ([1]; listed as uncoated micronized tobramycin): around 48%
d (0.5) ([2]; Table 10, Example 13, dry powder form, mean ± S.D., n = 3): 1.29 ± 0.02 μm
D [4, 3] ([2]; Table 10, Example 13, dry powder form, n = 3): 1.54 ± 0.01 μm
% <5.0 μm ([2]; Table 10, Example 13, n = 3): 99.3 ± 0.2%
solubility [3]: 50 µg/mL (≈ 107 µM)
Structure (SMILES): NC[C@H]1O[C@H](O[C@H]2[C@H](O)[C@@H](O[C@H]3O[C@H](CO)[C@@H](O)[C@H](N)[C@H]3O)[C@H](N)C[C@@H]2N)[C@H](N)C[C@@H]1O [Tobra μ, tobramycin]
